Experimental data published in patent US9303045B2, “5-HT3 receptor antagonists” (Takeda Pharmaceutical Company Limited, priority 2013, dated 2016).

Molecular target: 5HT3a receptor expressed in HEK-293T cells (Homo sapiens (Human), UniProt P46098)
Test: Inhibition of Ca flux activity of 5HT3 in vitro assay
Assay type: cell-based
Settings: calcium flux, 5HT 216 nM, approximate values
Method: Inhibition of Ca Flux Activity of 5HT3 In Vitro Assay
The 5HT3 antagonist activity of the compounds of the invention was determined by measuring the ability of the compounds to inhibit the calcium flux activity of […] receptor expressed in HEK-293T cells. HEK-293T cells were transfected with the 5HT3a expression construct using Xtreme Gene 9 (Roche) in 150 mm tissue culture treated plates and incubated for 24 hours at 37° C. Cells were then split and plated at a density of 60K cells/well in poly-lysine coated, black 96-well plates with clear bottoms (BD BioSciences) and incubated overnight at 37° C. Growth media was removed and cells loaded with 200 uL calcium indicator dye in HBSS containing 20 mM HEPES (Calcium 5 Assay kit, Molecular Devices) and incubated at 37° C. for 1 hour. While cells were incubating, the 10× antagonist and agonist/antagonist addition plates were made. For 10× antagonist plate: half log serial dilutions (final concentrations range from 10^−7 through 10^−10 with the bottom well a negative, no ligand control) were made from test compounds in DMSO at a 1000× concentration and then diluted to 10× in HBSS/20 mM HEPES. For addition plate: 5HT was diluted to 100× in HBSS/20 mM HEPES (final concentration in the assay—216 nM) and 15 uL was added to each well of the addition plate, 15 uL of 10× compound was also added to the addition plate, and finally 120 uL of HBSS/20 mM HEPES (for a total of 150 uL). Cells were then removed from the incubator and equilibrated to room temperature for 10 minutes, then 22.5 uL of 10× test compounds were added in triplicate to the plates and incubated at room temperature for 10 minutes (Tropisetron was used as a positive control in every assay). Test plate and addition plate were loaded into the FlexStation III (Molecular Devices), and using the fluidics, 22.5 uL compound additions were made (at t=˜17 seconds), and fluorescence was measured for 90 seconds, reading every 2.2 seconds. Data sets were analyzed as max minus min using Software Max Pro (Molecular Devices). IC50 curves were generated using non-linear regression in GraphPad Prism.

5HT3a receptor expressed in HEK-293T cells, sequence (P46098 24-478): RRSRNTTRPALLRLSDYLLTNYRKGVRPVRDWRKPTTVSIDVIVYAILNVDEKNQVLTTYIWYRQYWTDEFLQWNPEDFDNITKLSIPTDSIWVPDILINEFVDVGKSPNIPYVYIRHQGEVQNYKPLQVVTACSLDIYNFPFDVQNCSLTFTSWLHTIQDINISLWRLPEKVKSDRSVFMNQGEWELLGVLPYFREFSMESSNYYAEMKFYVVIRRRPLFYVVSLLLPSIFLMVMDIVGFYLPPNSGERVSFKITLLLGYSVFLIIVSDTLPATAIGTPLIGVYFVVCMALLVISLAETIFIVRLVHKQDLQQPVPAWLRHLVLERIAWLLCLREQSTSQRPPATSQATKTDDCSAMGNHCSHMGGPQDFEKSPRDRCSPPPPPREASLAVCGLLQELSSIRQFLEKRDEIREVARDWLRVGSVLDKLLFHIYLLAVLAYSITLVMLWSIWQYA

SMILES | IC50
CN1[C@@H]2CC[C@H]1CC(OC(=O)c1c(Cl)n(CC(F)(F)F)c3ccccc13)C2 (stereo partly drawn) [Example 44, (1R,3R,5S)-8-methyl-8-azabicyclo[3.2.1]octan-3-yl 2-chloro-1-(2,2,2-trifluoroethyl)-1H-indole-3-carboxylate, 2,2,2-trifluoroacetate] | 1.87 nM
O=C(OC1C[C@H]2CC[C@@H](C1)N2)c1cn(CC(F)F)c2ccccc12 (stereo partly drawn) [Example 45, (1R,3R,5S)-8-azabicyclo[3.2.1]octan-3-yl 1-(2,2-difluoroethyl)-1H-indole-3-carboxylate, 2,2,2-trifluoroacetate] | 3.09 nM
CN1[C@@H]2COC[C@H]1CC(OC(=O)c1cn(S(C)(=O)=O)c3ccccc13)C2 (stereo partly drawn) [Example 47, (1R,5S,7S)-9-methyl-3-oxa-9-azabicyclo[3.3.1]nonan-7-yl 1-(methylsulfonyl)-1H-indole-3-carboxylate, 2,2,2-trifluoroacetate] | 0.33 nM
CN1[C@@H]2COC[C@H]1C[C@@H](OC(=O)c1cn(CC(F)F)c3ncccc13)C2 [Example 48, (1R,5S,7S)-9-methyl-3-oxa-9-azabicyclo[3.3.1]nonan-7-yl 1-(2,2-difluoroethyl)-1H-pyrrolo[2,3-b]pyridine-3-carboxylate] | 0.84 nM
CN1[C@@H]2COC[C@H]1CC(OC(=O)c1cn(CC(F)(F)F)c3ncccc13)C2 (stereo partly drawn) [Example 49, (1R,5S,7S)-9-methyl-3-oxa-9-azabicyclo[3.3.1]nonan-7-yl 1-(2,2,2-trifluoroethyl)-1H-pyrrolo[2,3-b]pyridine-3-carboxylate, 2,2,2-trifluoroacetate] | 1.82 nM
O=C(OC1C[C@H]2COC[C@@H](C1)N2CCF)c1cn(CC(F)(F)F)c2ccc(F)cc12 (stereo partly drawn) [Example 50, (1R,5S,7S)-9-(2-fluoroethyl)-3-oxa-9-azabicyclo[3.3.1]nonan-7-yl 5-fluoro-1-(2,2,2-trifluoroethyl)-1H-indole-3-carboxylate, 2,2,2-trifluoroacetate] | 13 nM
CN1[C@@H]2COC[C@H]1CC(NC(=O)c1cn(CC(F)(F)F)c3ncc(F)cc13)C2 (stereo partly drawn) [Example 52, 5-fluoro-N-((1R,5S,7S)-9-methyl-3-oxa-9-azabicyclo[3.3.1]-nonan-7-yl)-1-(2,2,2-trifluoroethyl)-1H-pyrrolo[2,3-b]pyridine-3-carboxamide, 2,2,2-trifluoroacetate] | 1.05 nM
CN1[C@@H]2COC[C@H]1C[C@@H](NC(=O)c1cn(C(F)(F)C(F)F)c3ncc(F)cc13)C2 [Example 53, 5-fluoro-N-((1R,5S,7S)-9-methyl-3-oxa-9-azabicyclo[3.3.1]-nonan-7-yl)-1-(1,1,2,2-tetrafluoroethyl)-1H-pyrrolo[2,3-b]pyridine-3-carboxamide, 2,2,2-trifluoroacetate] | 1.05 nM
CC(C)S(=O)(=O)n1cc(C(=O)OC2C[C@H]3COC[C@@H](C2)N3)c2cc(F)ccc21 (stereo partly drawn) [Example 54, (1R,5S,7S)-3-oxa-9-azabicyclo[3.3.1]nonan-7-yl 5-fluoro-1-(isopropylsulfonyl)-1H-indole-3-carboxylate, 2,2,2-trifluoroacetate] | 5.61 nM
CN1[C@@H]2CC[C@H]1CC(OC(=O)c1c(Cl)n(CCF)c3ccccc13)C2 (stereo partly drawn) [Example 55, (1R,3R,5S)-8-methyl-8-azabicyclo[3.2.1]octan-3-yl 2-chloro-1-(2-fluoroethyl)-1H-indole-3-carboxylate, 2,2,2-trifluoroacetate] | 0.9 nM
CN1C2CCC1CC(OC(=O)c1nn(CCF)c3ccccc13)C2 [Example 57, (1R,3R,5S)-8-methyl-8-azabicyclo[3.2.1]octan-3-yl 1-(2-fluoroethyl)-1H-indazole-3-carboxylate, 2,2,2-trifluoroacetate] | > 1000 nM
CN1[C@@H]2COC[C@H]1CC(OC(=O)c1cn(CC(F)F)c3ccc(F)cc13)C2 (stereo partly drawn) [Example 58, (1R,5S,7S)-9-methyl-3-oxa-9-azabicyclo[3.3.1]nonan-7-yl 1-(2,2-difluoroethyl)-5-fluoro-1H-indole-3-carboxylate, 2,2,2-trifluoroacetate] | 0.24 nM
